From PubChem BioAssay AID1963836 (Molecular Pharmacology Branch, DTP, NCI, 2024)
pIC50: −log10 of the molar value.

Test system: 857933-349-R-J2-PDC complex spheroid viability
Experiment: Anticancer human tumor 857933-349-R-J2-PDC patient-derived colon adenocarcinoma cell line growth inhibition [POLQ]
Details: for pIC50: curve of first compound; for viability, T/C: stronger effect = lower value
Method: Multicellular complex tumor spheroid response to Polymerase (POL) inhibitors (novobiocin, ART-558, RP6685) in combination with a variety of drugs and investigational agents in selected tumor cell lines
The POL inhibitors (novobiocin, ART-558, and RP6685) were evaluated both individually and in combination with standard of care and investigational anticancer small molecules within a complex spheroid model of solid tumors. . Complex spheroids include a stromal component modeled by human endothelial cells (HUVEC) and fibroblasts modeled by human mesenchymal stem cells (MSCs). The concentration ranges selected for each drug and investigational agent were based upon clinically achievable concentrations if the clinical Cmax of the agent was known.
Compounds. The drugs and investigational agents: novobiocin (NSC847541), ART-558 (NSC835418), RP-6685 (NSC848927), peposertib (NSC802822), ceralasertib (NSC780249), elimusertib (NSC800525), camonsertib (NSC841442), AZD-1390 (NSC803789), olaparib (NSC753686), talazoparib (NSC767125), rucaparib (NSC756644), sotorasib (NSC818433), MRTX-1133 (NSC836407), SN-38 (NSC673596), topotecan (NSC609699), epotoside (NSC141540), doxorubicin (NSC123127), gemcitabine (NSC613327), 5-fluorouracil (NSC19893), paclitaxel (NSC125973), vemurafenib (NSC761431), MSA-2 (NSC828583), SN-011 (NSC837082), adavosertib (NSC754352), prexasertib (NSC758257), carboplatin (NSC241240) and oxaliplatin (NSC266046), were obtained from the National Cancer Institute (NCI) Developmental Therapeutics Program Chemical Repository (21). The FDA-approved anticancer drug set is available from the Developmental Therapeutics Program at https://dtp.cancer.gov/organization/dscb/obtaining/. […] The stock solutions were prepared in dimethyl sulfoxide (DMSO, Sigma-Aldrich, St. Louis, MO, cat. D2650), except for the platinum compounds which were prepared in saline (Quality Biological, Gaithersburg, MD, cat. 114-055-101), at 800-fold the tested concentration and stored at -70 degrees C prior to their use. All drugs and investigational agents were tested over a range starting from a high concentration at or near the clinical Cmax and decreasing in half-log increments. If the clinical Cmax for an agent had not been determined, the highest concentration tested was 10 microM, except for SN-38, which was tested at a high concentration of 1 microM.
Cell Culture. All cells were maintained in an incubator at 37 degrees C and 5% CO2 with 95% humidity. The PDC lines were cultured according to standard operating procedures established by the NCI PDMR (https://pdmr.cancer.gov). Table 3 of the manuscript, lists the cell lines along with the number of the three cell types plated to form the mct-spheroids and media for tumor cell growth. After thawing, all PDC lines, except 997537-175-T-J1-PDC and 415267-285-R-J2-PDC, were cultured in Matrigel-coated flasks prepared with a working solution of 1X Ham's F-12 nutrient mix, without supplementation (Thermo Fisher Scientific, cat. 11765054), 100 U/mL penicillin-streptomycin (Thermo Fisher Scientific, cat. 15140122), and 2.5% Matrigel (Corning Inc., Corning, NY, cat. 354248) for the first three passages. The two PDC lines 997537-175-T-J1-PDC and 415267-285-R-J2-PDC were cultured on uncoated flasks. The 857933-349-R-J2-PDC line was cultured in 6C/Colon 1B media containing advanced DMEM/F-12 (Thermo Fisher Scientific, cat. 12634028), 10 mM HEPES (Thermo Fisher Scientific, cat. 15630080), 1X GlutaMAX supplement (Thermo Fisher Scientific, cat. 35050061), 0.1 mg/mL primocin (InvivoGen, San Diego, CA, cat. ant-pm-2), 10% defined fetal bovine serum, heat inactivated (HyClone Laboratories Inc., Logan, UT, cat. SH30070.03HI), 50% L-WRN conditioned media (ATCC, cat. CRL-3276), 1.25 mM N-Acetyl-L-cysteine (Sigma-Aldrich, cat. A9165), 10 mM nicotinamide (Sigma-Aldrich, cat. N0636), 1X B-27 supplement (Thermo Fisher Scientific, cat. 17504044), 1X N-2 supplement (Thermo Fisher Scientific, cat. […]

[1] = second compound 0.0316 µM, first compound 0.0316 µM
[2] = second compound 0.0316 µM, first compound 0.1 µM
[3] = second compound 0.0316 µM, first compound 0.316 µM
[4] = second compound 0.0316 µM, first compound 1 µM
[5] = second compound 0.1 µM, first compound 0.0316 µM
[6] = second compound 0.1 µM, first compound 0.1 µM
[7] = second compound 0.1 µM, first compound 0.316 µM
[8] = second compound 0.1 µM, first compound 1 µM
[9] = second compound 0.316 µM, first compound 0.0316 µM
[10] = second compound 0.316 µM, first compound 0.1 µM
[11] = second compound 0.316 µM, first compound 0.316 µM
[12] = second compound 0.316 µM, first compound 1 µM
[13] = second compound 1 µM, first compound 0.0316 µM
[14] = second compound 1 µM, first compound 0.1 µM
[15] = second compound 1 µM, first compound 0.316 µM
[16] = second compound 1 µM, first compound 1 µM
[17] = second compound 3.16 µM, first compound 0.0316 µM
[18] = second compound 3.16 µM, first compound 0.1 µM
[19] = second compound 3.16 µM, first compound 0.316 µM
[20] = second compound 3.16 µM, first compound 1 µM
[21] = second compound 10 µM, first compound 0.0316 µM
[22] = second compound 10 µM, first compound 0.1 µM
[23] = second compound 10 µM, first compound 0.316 µM
[24] = second compound 10 µM, first compound 1 µM
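Also: spheroids exposed to compounds for seven days before readout.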

For `CNCc1ccc(-c2[nH]c3cc(F)cc4c3c2CCNC4=O)cc1` + Nc1ccc(C#CCN(C(=O)Cc2ncc(C(F)(F)F)cc2C(F)(F)F)c2ccc(F)cc2)nn1, the pIC50 (second compound 0.0316 µM) was under 5.00, the pIC50 (second compound 0.1 µM) was under 5.00 and the pIC50 (second compound 0.316 µM) was under 5.00. For the same compound, the pIC50 (second compound 1 µM) was under 5.00, the pIC50 (second compound 3.16 µM) was under 5.00 and the pIC50 (second compound 10 µM) was under 5.00. For the same compound, the viability, T/C [1] was 91.7%, the viability, T/C [2] was 101% and the viability, T/C [3] was 92%. It also gave a viability, T/C [4] of 97.1%, a viability, T/C (second compound 0.0316 µM, first compound 3.16 µM) of 101% and a viability, T/C (second compound 0.0316 µM, first compound 10 µM) of 98.2%. It also gave a viability, T/C [5] of 94.5%, a viability, T/C [6] of 78.7% and a viability, T/C [7] of 85.6%. For the same compound, the viability, T/C [8] was 110%, the viability, T/C (second compound 0.1 µM, first compound 3.16 µM) was 103% and the viability, T/C (second compound 0.1 µM, first compound 10 µM) was 93.7%. For the same compound, the viability, T/C [9] was 103%, the viability, T/C [10] was 102% and the viability, T/C [11] was 95.3%. For the same compound, the viability, T/C [12] was 94.9%, the viability, T/C (second compound 0.316 µM, first compound 3.16 µM) was 107% and the viability, T/C (second compound 0.316 µM, first compound 10 µM) was 90.6%. It also gave a viability, T/C [13] of 93.4%, a viability, T/C [14] of 101% and a viability, T/C [15] of 98.9%. The viability, T/C [16] was 107%, the viability, T/C (second compound 1 µM, first compound 3.16 µM) was 94.3% and the viability, T/C (second compound 1 µM, first compound 10 µM) was 98.2%. The viability, T/C [17] was 96.3%, the viability, T/C [18] was 84.9% and the viability, T/C [19] was 92.1%. It also gave a viability, T/C [20] of 104%, a viability, T/C (second compound 3.16 µM, first compound 3.16 µM) of 97.7% and a viability, T/C (second compound 3.16 µM, first compound 10 µM) of 101%. The viability, T/C [21] was 91.6%, the viability, T/C [22] was 99% and the viability, T/C [23] was 91.2%. The viability, T/C [24] was 93%, the viability, T/C (second compound 10 µM, first compound 3.16 µM) was 100% and the viability, T/C (second compound 10 µM, first compound 10 µM) was 92%.

With `COc1cccc(OCCCN)c1-c1cc(Nc2cnc(C#N)cn2)n[nH]1` + Nc1ccc(C#CCN(C(=O)Cc2ncc(C(F)(F)F)cc2C(F)(F)F)c2ccc(F)cc2)nn1 the pIC50 (second compound 0.0316 µM) was under 6.00, the pIC50 (second compound 0.1 µM) was 6.16 and the pIC50 (second compound 0.316 µM) was under 6.00. For the same compound, the pIC50 (second compound 1 µM) was 6.17, the pIC50 (second compound 3.16 µM) was under 6.00 and the pIC50 (second compound 10 µM) was under 6.00. The viability, T/C (second compound 0.0316 µM, first compound 0.00316 µM) was 101%, the viability, T/C (second compound 0.0316 µM, first compound 0.01 µM) was 113% and the viability, T/C [1] was 83.8%. The viability, T/C [2] was 68.4%, the viability, T/C [3] was 58.9% and the viability, T/C [4] was 50.2%. It also gave a viability, T/C (second compound 0.1 µM, first compound 0.00316 µM) of 104%, a viability, T/C (second compound 0.1 µM, first compound 0.01 µM) of 107% and a viability, T/C [5] of 76.9%. It also gave a viability, T/C [6] of 88.8%, a viability, T/C [7] of 58.2% and a viability, T/C [8] of 44.3%. For the same compound, the viability, T/C (second compound 0.316 µM, first compound 0.00316 µM) was 105%, the viability, T/C (second compound 0.316 µM, first compound 0.01 µM) was 101% and the viability, T/C [9] was 88.2%. For the same compound, the viability, T/C [10] was 62.1%, the viability, T/C [11] was 57.8% and the viability, T/C [12] was 54.4%. For the same compound, the viability, T/C (second compound 1 µM, first compound 0.00316 µM) was 109%, the viability, T/C (second compound 1 µM, first compound 0.01 µM) was 88.5% and the viability, T/C [13] was 80.5%. It also gave a viability, T/C [14] of 70%, a viability, T/C [15] of 53.9% and a viability, T/C [16] of 47.1%. The viability, T/C (second compound 3.16 µM, first compound 0.00316 µM) was 101%, the viability, T/C (second compound 3.16 µM, first compound 0.01 µM) was 96.9% and the viability, T/C [17] was 81.9%. It also gave a viability, T/C [18] of 66.8%, a viability, T/C [19] of 51.2% and a viability, T/C [20] of 54.9%. It also gave a viability, T/C (second compound 10 µM, first compound 0.00316 µM) of 86.8%, a viability, T/C (second compound 10 µM, first compound 0.01 µM) of 102% and a viability, T/C [21] of 76.9%. For the same compound, the viability, T/C [22] was 69.8%, the viability, T/C [23] was 57% and the viability, T/C [24] was 54%.
